Read-outs that look alike come from different tables or passages of the source.
What was measured:
[1] = target: CLK1 (Homo sapiens, UniProt P49759); assay: CLK1 inhibition by capillary electrophoresis in a microfluidic chip system (LabChip3000); format: biochemical
[2] = tested on: CHIKV C21; format: in vivo, C57BL/6 mice; conditions: adult mice pretreated at least 3 days (pimozide 20 mg kg−1 per os; TOFA 25 mg kg−1 i.p.), 18 h p.i.
[3] = tested on: CHIKV; assay: microbe, parasite or virus in culture; format: cell-based, chikungunya virus; conditions: HEK-293 cells pretreated with dilutions of each drug, CHIKV-GFP, 18 h p.i.
[4] = tested on: herpes simplex type 1 strain KOS (HSV-1); format: cell-based, herpes simplex virus 1; conditions: HEK-293 cells pretreated 2 h, Fig. 4
[5] = tested on: CHIKV C21; assay: Intradermal CHIKV infection model of neonatal mice; conditions: for impact on mouse growth: neonatal mice
[6] = tested on: HeLa cells; assay: Cell viability, CellTiter-Glo kit; conditions: end of the 1 h infection + 7 h treatment experiment
[7] = tested on: HEK-293 cells; assay: Cell viability, Cell Proliferation Reagent WST-1; format: cell-based, human; conditions: read-out: WST-1 IC50
Protocol: To exclude the possible cytotoxic effects, all compounds were additionally tested using the ‘Cell Proliferation Reagent WST-1' (Roche Diagnostics). HEK-293 cells were treated with the same concentrations of the various substances and 18 h later WST-1 was added. Readout was conducted using the EnVision Multilabel Reader (PerkinElmer).

[8] = tested on: CHIKV C21; assay: Quantitative RT-PCR of cell- and supernatant-associated vRNA; format: cell-based, chikungunya virus; conditions: HeLa; for vRNA synthesis (cell-associated vRNA) / viral release in the supernatants (supernatant-associated vRNA): CHIKV C21 MOI 50 for 1 h, then drug 7 h: cerulenin 50 μM, TOFA 25 μM, pimozide 10 μM, W7 20 μM, tivozanib 5 μM; for vRNA replication, delayed treatment / viral release, delayed treatment: CHIKV-infected, drugs from 6 to 8 h p.i.
[9] = tested on: CHIKV replicon; assay: CHIKV replicon dual-luciferase assay (genomic and subgenomic vRNA expression); format: cell-based, chikungunya virus; conditions: HeLa cells, inhibitor from 1 h p.i., read 8 h p.i.
[10] = tested on: HeLa cells; assay: Real-time cell toxicity assay (xCELLigence)
[11] = tested on: CHIKV C21; assay: Single-cycle CHIKV C21 infection, drug 2 h before or 2 h after infection (flow cytometry of capsid; supernatant infectivity on Vero cells); format: cell-based, chikungunya virus
[12] = 0.5 mg kg−1 per os daily from day 7, infected at day 9, continued 21 days
[13] = HEK-293 cell viability, 18 h, * = treatment induced <50% cell death

CLK1, sequence (P49759 whole entry): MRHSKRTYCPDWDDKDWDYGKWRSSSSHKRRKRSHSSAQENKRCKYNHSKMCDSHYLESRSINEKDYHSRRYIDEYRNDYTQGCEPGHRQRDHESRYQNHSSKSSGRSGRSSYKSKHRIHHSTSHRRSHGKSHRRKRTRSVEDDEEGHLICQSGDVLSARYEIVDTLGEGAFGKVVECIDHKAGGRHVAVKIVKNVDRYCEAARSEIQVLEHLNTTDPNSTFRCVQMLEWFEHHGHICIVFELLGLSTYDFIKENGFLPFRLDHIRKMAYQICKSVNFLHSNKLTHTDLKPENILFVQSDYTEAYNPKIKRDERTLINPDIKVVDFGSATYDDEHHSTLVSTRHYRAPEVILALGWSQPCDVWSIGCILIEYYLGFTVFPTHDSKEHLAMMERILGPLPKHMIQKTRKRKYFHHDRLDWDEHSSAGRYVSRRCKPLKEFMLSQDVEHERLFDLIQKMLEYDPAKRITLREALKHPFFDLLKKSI

Compound	IC50 ([3]; Chikungunya virus, HEK293) [nM]	cell toxicity [6]	IC50 ([7]; Homo sapiens, HEK293, 18 h) [µM]	vRNA synthesis (cell-associated vRNA) [8]	viral release in the supernatants (supernatant-associated vRNA) [8]	vRNA replication, delayed treatment [8]	viral release, delayed treatment [8]	further results
C#CCn1c2c(Br)nccc2c2ccc(Cl)c(Cl)c21 [AnnH80, 1-bromo-7,8-dichloro-9-(prop-2-yn-1-yl)-9H-pyrido[3,4-b]indole]	–	–	–	–	–	–	–	IC50 [1]: 862 nM; melting point: 190 to 193 °C
O=c1[nH]c2ccccc2n1C1CCN(CCCC(c2ccc(F)cc2)c2ccc(F)cc2)CC1 [Pimozide]	280	no detectable cell toxicity	19.2	significantly reduced vRNA synthesis	strongly inhibited viral release	only a minor impact on vRNA replication	major defect in viral release	CHIKV titres in the footpad (replication) [2]: significantly reduced replication; antiviral effect on HSV-1 [4]: antiviral effect; impact on mouse growth [5]: detectable impact on mouse growth
CCCCCCCCCCCCCCOc1ccc(C(=O)O)o1 [TOFA, 5-tetradecyloxy-2-furoic acid]	150	no detectable cell toxicity	> 60	significantly reduced vRNA synthesis	strongly inhibited viral release	only a minor impact on vRNA replication	major defect in viral release	CHIKV titres in the footpad (replication) [2]: significantly reduced replication; genomic and subgenomic vRNA synthesis [9]: significant and dose-dependent reduction; impact on mouse growth [5]: detectable impact on mouse growth; effect on cell viability [10]: no deleterious effect on cell viability
COc1cc2nccc(Oc3ccc(NC(=O)Nc4cc(C)on4)c(Cl)c3)c2cc1OC [Tivozanib]	800	no detectable cell toxicity	8.34	significantly reduced vRNA synthesis	strongly inhibited viral release	only a minor impact on vRNA replication	major defect in viral release	body weight gain [5, 12]: positive impact on body weight gain; mortality of CHIKV-infected mice [5, 12]: significant reduction in mortality; onset of paralysis [5, 12]: protected from the onset of paralysis; CHIKV viral load in organs ([5]; 3 days post infection, 0.5 mg kg−1 per os): significantly reduced CHIKV viral load
COc1ccc2c(c1)[nH]c1c(/C=C/c3ccccc3)nccc12 [AnnH18, (E)-7-methoxy-1-(2-phenylethen-1-yl)-9H-pyrido[3,4-b]indole]	1020	–	9.19	–	–	–	–	IC50 [1]: 575 nM
CO/C1=C\C(C)=C\[C@@H](C)[C@@H](O)[C@@H](C)C/C(C)=C/C=C/[C@H](OC)[C@@H]([C@@H](C)[C@@H](O)[C@H](C)[C@@]2(O)C[C@@H](O)[C@H](C)[C@@H](C(C)C)O2)OC1=O [Bafilomycin]	–	–	–	–	–	–	–	IC50 [3]: 0.334 nM; IC50 [7, 13]: 0.003 µM; stage of the viral life cycle affected ([11]; single-cycle CHIKV infection, treatment before or after viral entry): specifically blocked CHIKV entry
CCCCn1c2cc(OC)c(Cl)cc2c2ccnc(C)c21 [AnnH14, 9-butyl-6-chloro-7-methoxy-1-methyl-9H-pyrido[3,4-b]indole]	1550	–	10.6	–	–	–	–	IC50 [1]: 5020 nM
KH-CB19	–	–	–	–	–	–	–	IC50 [3]: 3360 nM; IC50 [7, 13]: 10.9 µM; inhibition of CHIKV infection at early times p.i. ([11]; Supplementary Fig. 5a): incomplete inhibition
CC(Cc1ccccc1)NCCC(c1ccccc1)c1ccccc1 (stereo not shown) [Prenylamine]	2390	–	16.5	–	–	–	–	–
C/C=C/C/C=C/CCC(=O)[C@H]1O[C@H]1C(N)=O [Cerulenin]	3000	no detectable cell toxicity	7.57	significantly reduced vRNA synthesis	strongly inhibited viral release	only a minor impact on vRNA replication	major defect in viral release	genomic and subgenomic vRNA synthesis [9]: significant and dose-dependent reduction; effect on cell viability [10]: no deleterious effect on cell viability
CCOC(=O)C1=C(C)NC(C)=C(C(=O)OC)C1c1cccc(Cl)c1Cl (stereo not shown) [Felodipine]	3240	–	12.1	–	–	–	–	–
COc1ccc(-c2ccccc2)cc1NS(=O)(=O)c1cc(Cl)cc(Cl)c1O [BMS-303141]	–	–	–	–	–	–	–	genomic and subgenomic vRNA synthesis [9]: significant and dose-dependent reduction; effect on cell viability [10]: no deleterious effect on cell viability
